In patent publication EP4692086A1, “ANTICOAGULATION REVERSAL AGENT, AND PREPARATION METHOD THEREFOR AND USE THEREOF” (Shaanxi Micot Pharmaceutical Technology Co., Ltd., priority 2023, dated 2024):

Experiments:
Format in all cases: in vivo, SD rats
warfarin-induced rats [1] = assay: Hepatic laceration hemorrhage model, antagonizing warfarin; conditions: for Hepatic Laceration Bleeding Loss: jugular vein injection, bleeding loss over 30 min; for Inhibition Rate: hepatic laceration bleeding loss, vs Vehicle (warfarin)
Protocol: Hepatic laceration hemorrhage model: In all groups except for Control group and Compound 1 20 mg/kg+N.S. control group, SD rats were administered warfarin by oral gavage once daily for 3 consecutive days. 30 min after the final administration, the rats were injected with 10% chloral hydrate via intraperitoneal injection. The anaesthetized animals were placed on an electric heating blanket preheated to 37°C. Jugular vein was isolated and cannulated within 30 min. Aspirin was administered and 30 min later, test substances were injected via the jugular vein. 5 min after injection, the abdominal cavity was opened, and 3 standard incisions, each with a length of 1 cm and a depth of 2 mm, were made on the liver. Blood flowing from the liver was absorbed with pre-weighed dry cotton, and bleeding loss (BL) over 30 min was recorded.

warfarin-induced rats [2] = assay: Tail transection hemorrhage model, antagonizing warfarin (bleeding loss and WBCT); conditions: for Tail Transection Bleeding Loss: jugular vein injection, bleeding loss over 15 min
Protocol: Tail transection hemorrhage model: In all groups except for Control group and Compound 1 20 mg/kg+N.S. control group, SD rats were administered warfarin by oral gavage once daily for 3 consecutive days. 30 min after the final administration, the rats were injected with 10% chloral hydrate via intraperitoneal injection. The anaesthetized animals were placed on an electric heating blanket preheated to 37°C. Jugular vein was isolated and cannulated within 30 min. Normal saline or drug was injected via the jugular vein. 5 min after injection, a transection was made 5 mm away from the tip of the rat's tail. Bleeding loss (BL) over 15 min was recorded. At the end of the experiment, blood was collected from the abdominal cavity and WBCT was measured. Temperatures including room temperature and water bath temperature were strictly controlled throughout the experiment.

heparin-induced rats [3] = assay: Tail transection hemorrhage model, antagonizing heparin; conditions: bleeding loss over 15 min
Protocol: (§1) Tail transection hemorrhage model: […] The anaesthetized animals were placed on an electric heating blanket preheated to 37°C. Jugular vein was isolated and cannulated within 30 min. Normal saline or drug was injected via the jugular vein. 5 min after injection, a transection was made 5 mm away from the tip of the rat's tail. Bleeding loss (BL) over 15 min was recorded. Temperatures including room temperature and water bath temperature were strictly controlled throughout the experiment.

heparin-induced rats [4] = assay: Hepatic laceration hemorrhage model, antagonizing heparin; conditions: for Hepatic Laceration Bleeding Loss: bleeding loss over 30 min
enoxaparin-induced rats [5] = assay: Tail transection hemorrhage model, antagonizing enoxaparin; conditions: bleeding loss over 15 min
Protocol: as §1

enoxaparin-induced rats [6] = assay: Hepatic laceration hemorrhage model, antagonizing enoxaparin; conditions: for Hepatic Laceration Bleeding Loss: bleeding loss over 30 min; for Inhibition Rate: hepatic laceration bleeding loss, vs Vehicle (enoxaparin)
[7] = 20 mg/kg+warfarin, blood collected at the end of the experiment
[8] = 10 mg/kg+heparin, listed as compound 1
[9] = 5 mg/kg+enoxaparin, listed as compound 1
[10] = Rattus norvegicus, read-out: Inhibition Rate

## N=C(N)NCCCC(N)C(=O)NCCCn1c(=O)c2c(ncn2CCCNC(=O)C(N)CCCNC(=N)N)n(CCCNC(=O)C(N)CCCNC(=N)N)c1=O (stereo not drawn) [Compound 1]
warfarin-induced rats [1]; 5 mg/kg+warfarin
  Hepatic Laceration Bleeding Loss: 0.3029 ± 0.1189 g
  Inhibition Rate: -7.9
warfarin-induced rats [1]; 10 mg/kg+warfarin
  Hepatic Laceration Bleeding Loss: 0.2379 ± 0.1613 g
  Inhibition Rate: 15.3
warfarin-induced rats [1]; 20 mg/kg+warfarin, compared to the Vehicle group
  inhibited hepatic laceration bleeding loss: 72.1%
warfarin-induced rats [1]; 20 mg/kg+warfarin
  Hepatic Laceration Bleeding Loss: 0.0784 ± 0.0346 g
  Inhibition Rate: 72.1
warfarin-induced rats [2]; 20 mg/kg+N.S. (no warfarin), compared to the Control group
  WBCT: no significant changes
warfarin-induced rats [2]; [7]
  WBCT: 490 ± 99 s
warfarin-induced rats [2]; 20 mg/kg+warfarin, blood collected at the end of the experiment, listed as compound 1
  WBCT: significantly shortened
warfarin-induced rats [2]; 20 mg/kg+warfarin
  Tail Transection Bleeding Loss: 0.0143 ± 0.0108 g
warfarin-induced rats [2]; 20 mg/kg+warfarin, listed as compound 1
  Tail Transection Bleeding Loss: significantly reduced
heparin-induced rats [3]; 5 mg/kg+heparin
  Tail Transection Bleeding Loss: 38.3625 ± 12.6991 mg
heparin-induced rats [3]; 10 mg/kg+heparin
  Tail Transection Bleeding Loss: 19.9375 ± 22.3215 mg
heparin-induced rats [3]; [8]
  Tail Transection Bleeding Loss: significantly reduced
heparin-induced rats [3]; 20 mg/kg+heparin
  Tail Transection Bleeding Loss: 12.1125 ± 6.6714 mg
heparin-induced rats [4]; 5 mg/kg+heparin
  Hepatic Laceration Bleeding Loss: 0.3217 ± 0.0919 g
heparin-induced rats [4]; 10 mg/kg compound 1 (so in the source)+heparin, compared to the Vehicle group
  inhibition rate for hepatic laceration bleeding loss: 88.9%
heparin-induced rats [4]; 10 mg/kg+heparin
  Hepatic Laceration Bleeding Loss: 0.1794+0.0966 g
heparin-induced rats [4]; [8]
  Hepatic Laceration Bleeding Loss: significantly reduced
heparin-induced rats [4]; 20 mg/kg+heparin
  Hepatic Laceration Bleeding Loss: 0.0560+0.0408 g
enoxaparin-induced rats [5]; 0.2 mg/kg+enoxaparin
  Tail Transection Bleeding Loss: 0.0903 ± 0.0426 g
enoxaparin-induced rats [5]; 1 mg/kg+enoxaparin
  Tail Transection Bleeding Loss: 0.0302 ± 0.0147 g
enoxaparin-induced rats [5]; 5 mg/kg+enoxaparin
  Tail Transection Bleeding Loss: 0.0158 ± 0.0083 g
enoxaparin-induced rats [5]; [9]
  Tail Transection Bleeding Loss: superior to the 20 mg/kg PER977 group
enoxaparin-induced rats [6]; 0.2 mg/kg+enoxaparin
  Hepatic Laceration Bleeding Loss: 0.5253 ± 0.2034 g
  Inhibition Rate: -17.1%
enoxaparin-induced rats [6]; 1 mg/kg+enoxaparin
  Hepatic Laceration Bleeding Loss: 0.1674 ± 0.0734 g
  Inhibition Rate: 62.7%
enoxaparin-induced rats [6]; 1 mg/kg+enoxaparin, listed as compound 1
  Hepatic Laceration Bleeding Loss: significantly reduced
enoxaparin-induced rats [6]; 5 mg/kg+enoxaparin
  Hepatic Laceration Bleeding Loss: 0.0490 ± 0.0184 g
  Inhibition Rate: 89.1%
enoxaparin-induced rats [6]; [9]
  Hepatic Laceration Bleeding Loss: significantly reduced

## N=C(N)NCCC[C@H](N)C(=O)NCCCN1CCN(CCCNC(=O)[C@@H](N)CCCNC(=N)N)CC1 [PER977, diarginine piperazine, reference compound]
warfarin-induced rats [1]; 20 mg/kg+warfarin
  Hepatic Laceration Bleeding Loss: 0.0874 ± 0.0292 g
warfarin-induced rats [1]; [10]
  inhibition at 20 mg/kg: 68.9%
warfarin-induced rats [2]; [7]
  WBCT: 471 ± 101 s
warfarin-induced rats [2]; 20 mg/kg+warfarin
  Tail Transection Bleeding Loss: 0.0276 ± 0.0123 g
heparin-induced rats [3]; 20 mg/kg+heparin
  Tail Transection Bleeding Loss: 17.9000 ± 11.6004 mg
heparin-induced rats [4]; 20 mg/kg+heparin
  Hepatic Laceration Bleeding Loss: 0.0511 ± 0.0444 g
enoxaparin-induced rats [5]; 20 mg/kg+enoxaparin
  Tail Transection Bleeding Loss: 0.0228 ± 0.0155 g
enoxaparin-induced rats [6]; 20 mg/kg+enoxaparin
  Hepatic Laceration Bleeding Loss: 0.0420 ± 0.0244 g
enoxaparin-induced rats [6]; [10]
  inhibition at 20 mg/kg: 90.6%
